# Results published in article PMC12488667, “Orodispersible films containing chestnut shell phenolics for buccal delivery: a preclinical approach for oral mucositis prevention” (Frontiers in Medical Technology, 2025).
# “And” between values parts separate entries of the source, which are not always exact repeats. Equal values may be shown once. Read-outs that look alike come from different tables or passages of the source. Marks after values point to notes of the source that are not given here.
# Key:
# [1] = Ex vivo permeation, Franz cells; type: in vitro ADME, porcine
# Protocol: Porcine buccal mucosa was used to evaluate the buccal permeation of the phenolic compounds in the extract and the CS-loaded OFs (n = 9). The porcine buccal mucosa was purchased in a local butcher shop, not requiring ethical approval. A Franz cell assembly (9 mm clear jacketed Franz cell with a flat ground joint, 5 ml receptor volume, and permeation area of 0.785 cm^2; PermeGear, Inc., USA) was used. This experiment followed the methodology described by Rodrigues et al. ([32]). In the Franz apparatus, the porcine buccal mucosa was positioned with the cheek side facing the donor chamber, which contained 500 µl (1,000 μg/ml) of the CS extract or the CS-loaded OFs (two square films (2 × 2 cm) with […] of thickness were dissolved in 4 ml of artificial saliva; donor concentration was normalized to ensure equivalence between the extract solution and the film formulation). The receptor chamber was filled with 5 ml PBS, maintained at 37°C, and stirred continuously at 150 rpm. The volume was maintained through the experiments.
# (§1) The identification and quantification of the phenolic compounds present in the extract and the OFs, as well as the compounds that permeated from the OFs through in vitro and ex vivo assays, were conducted using an LC-ESI-LTQ-Orbitrap-HRMS equipment with an Accela chromatograph (Thermo Scientific, Hemel Hempstead, UK), a photodiode array detector, a quaternary pump, and a temperature-controlled autosampler coupled to a high-resolution LTQ Orbitrap Velos mass spectrometer (Thermo Scientific, Hemel Hempstead, UK) with an ESI source in negative mode ([33], [34]). The system was controlled using the Xcalibur v3.0 software (ThermoFisher Scientific, Hemel Hempstead, UK). Elution was performed on an Acquity™ UPLC® BEH C18 Column (2.1 × 100 mm, i.d., 1.7 µm particle size, Waters Corporation, Wexford, Ireland) maintained at 30°C.
# (§2) Gradient elution was performed with water (A) and acetonitrile (B), both with 0.1% formic acid, with a flow rate and injection volume of 450 µl/min and 5 µl, respectively. The solvent gradient (v/v) of B [t (min), %B] was set as follows: (0, 0), (2, 0), (4, 30), (8, 100), (10, 100), (11, 0), and (14, 0). The samples were analyzed in the full scan mode at a resolving power of 30,000 and m/z 600. Data-dependent MS/MS events were acquired at a resolution of 15,000. Most intense ions were detected via the FTMS mode-triggered data-dependent acquisition mode. Ions that were not sufficiently intense for a data-dependent scan were explored in MSn mode. Precursors were fragmented by collision-induced dissociation using a C-trap with a normalized collision energy (35 V) and an activation time of 10 ms. […] Compounds whose theoretical [M–H]^− values exceeded the MS¹ acquisition range (m/z 100–600) were annotated based on characteristic MSⁿ fragment ions detected within the scan window.
# Quantitative analysis was performed by using a validated chromatographic method ([38]).
# TR146 cells = assay: In vitro permeation, buccal model; type: in vitro ADME, human
# Protocol: The in vitro permeability of the bioactive compounds present in OFs (n = 9) was determined using a co-culture model composed of TR146 ([31]). The extract and the CS-loaded OFs were added to the apical side of the model as a stock solution. […] The Transepithelial Electrical Resistance (TEER) of the model was evaluated before, during, and at the end of the permeability assay using an EVOM Epithelial Volthometer equipped with a chopstick electrode (World Precision Instruments, Sarasota, FL, USA).
# as §1, §2
structure (smiles),measurement,setting,value
O=C(CCc1ccc(O)cc1)c1c(O)cc(O)cc1O[C@@H]1O[C@H](CO)[C@@H](O)[C@H](O)[C@H]1O [Phlorizin],Quantification of permeated compounds,[1]; CS extract,1.93± 0.06^a mg/ml
same,Quantification of permeated compounds,[1]; CS-loaded OFs,0.87 ± 0.06^a mg/g film
same,Permeation (%),"[1]; from CS extract, 15 min",18.69 ± 0.04^a %
same,Permeation (%),"[1]; from CS extract, 30 min",17.60 ± 0.30^a %
O=C(O)CCCCCC(=O)O [Pimelic acid],Quantification of permeated compounds,[1]; CS extract,26.17 ± 2.25^a mg/ml
same,Quantification of permeated compounds,[1]; CS-loaded OFs,30.41 ± 0.01^a mg/g film
same,Permeation (%),"[1]; from CS extract, 15 min",65.10 ± 1.87^a %
same,Permeation (%),"[1]; from CS extract, 30 min",67.06 ± 2.58^a %
same,Permeation (%),"[1]; from CS-loaded OFs, 15 min",76.61 ± 4.85^a %
O=C1CC[C@@H](C(=O)O)N1 [Pyroglutamic acid],Quantification of permeated compounds,TR146 cells; CS extract,41.32 ± 2.63^b mg/ml
same,Quantification of permeated compounds,TR146 cells; CS-loaded OFs,28.93 ± 1.88^a mg/g film
same,Permeation (%),"TR146 cells; from CS extract, 15 min",13.92 ± 0.12^a %
same,Permeation (%),"TR146 cells; from CS extract, 30 min",15.39 ± 1.05^a %
same,Permeation (%),"TR146 cells; from CS extract, 45 min",18.22 ± 1.41^b %
same,Permeation (%),"TR146 cells; from CS extract, 60 min",23.34 ± 0.88^b %
same,Permeation (%),"TR146 cells; from CS extract, 90 min",22.87 ± 1.52^b %
same,Permeation (%),"TR146 cells; from CS extract, 120 min",23.68 ± 1.84^b %
same,Permeation (%),"TR146 cells; from CS extract, 180 min",21.35 ± 0.97^b %
same,Permeation (%),"TR146 cells; from CS extract, 240 min",28.47 ± 2.52^b %
same,Permeation (%),"TR146 cells; from CS-loaded OFs, 15 min",17.03 ± 0.23^a %
same,Permeation (%),"TR146 cells; from CS-loaded OFs, 30 min","39.63 ± 0.24^a^,^b %"
same,Permeation (%),"TR146 cells; from CS-loaded OFs, 45 min","43.32 ± 1.12^a^,^b %"
same,Permeation (%),"TR146 cells; from CS-loaded OFs, 60 min","46.32 ± 2.65^a^,^b %"
same,Permeation (%),"TR146 cells; from CS-loaded OFs, 90 min",65.40 ± 0.82^b %
same,Permeation (%),"TR146 cells; from CS-loaded OFs, 120 min",66.95 ± 3.71^b %
same,Permeation (%),"TR146 cells; from CS-loaded OFs, 180 min",103.24 ± 2.71^c %
same,Permeation (%),"TR146 cells; from CS-loaded OFs, 240 min",111.34% and 111.34 ± 1.62^c %
O=c1c(O[C@@H]2O[C@H](CO)[C@H](O)[C@H](O)[C@H]2O)c(-c2ccc(O)c(O)c2)oc2cc(O)cc(O)c12 [Quercetin 3-O-galactoside],Quantification of permeated compounds,TR146 cells; CS extract,0.36 ± 0.01^a mg/ml
same,Quantification of permeated compounds,TR146 cells; CS-loaded OFs,0.36 ± 0.01^a mg/g film
same,Permeation (%),"TR146 cells; from CS extract, 60 min",49.94 ± 0.98^a %
O=C(O)[C@]1(O)C[C@@H](O)[C@@H](O)[C@H](O)C1 [Quinic acid],Quantification of permeated compounds,[1]; CS extract,1.02 ± 0.02^b mg/ml
same,Quantification of permeated compounds,[1]; CS-loaded OFs,0.39 ± 0.01^a mg/g film
same,Permeation (%),"[1]; from CS extract, 15 min",29.36 ± 1.68^a %
same,Permeation (%),"[1]; from CS extract, 30 min",28.33 ± 1.16^a %
same,Permeation (%),"[1]; from CS-loaded OFs, 15 min",70.71 ± 1.52^b %
same,Permeation (%),"[1]; from CS-loaded OFs, 30 min",74.31 ± 1.78^b %
COc1cc(C[C@@H](CO)[C@H](CO)Cc2ccc(O)c(OC)c2)ccc1O [Secoisolariciresinol],Permeation (%),TR146 cells,22.32 ± 0.12^a %
O=C(O)CCCCCCCCCC(=O)O [Undecanedioic acid],Quantification of permeated compounds,[1]; CS extract,23.93 ± 1.12^a mg/ml
same,Quantification of permeated compounds,[1]; CS-loaded OFs,23.67 ± 5.00^a mg/g film
same,Permeation (%),"[1]; from CS extract, 15 min",85.64 ± 4.12^a %
same,Permeation (%),"[1]; from CS extract, 30 min",86.86 ± 3.52^a %
COc1cc(C=O)ccc1O [Vanillin],Quantification of permeated compounds,TR146 cells; CS extract,0.70 ± 0.02^a mg/ml
same,Quantification of permeated compounds,TR146 cells; CS-loaded OFs,0.44 ± 0.05^a mg/g film
same,Permeation (%),"TR146 cells; from CS extract, 15 min",8.10 ± 0.02^a %
same,Permeation (%),"TR146 cells; from CS extract, 30 min",23.12 ± 0.56^b %
same,Permeation (%),"TR146 cells; from CS extract, 45 min",28.35 ± 0.83^b %
same,Permeation (%),"TR146 cells; from CS extract, 60 min",28.43 ± 0.41^b %
same,Permeation (%),"TR146 cells; from CS extract, 90 min",42.18 ± 1.08^c %
same,Permeation (%),"TR146 cells; from CS extract, 120 min",27.71 ± 0.72^a %
same,Permeation (%),"TR146 cells; from CS extract, 180 min",53.91 ± 1.07^d %
same,Permeation (%),"TR146 cells; from CS extract, 240 min",52.90 ± 0.73^d %
O=c1[nH]c(=O)c2[nH]cnc2[nH]1 [Xanthine],Permeation (%),"[1]; pig, 15 min, 1000 μg/ml",6.94 ± 0.02^a %
same,Permeation (%),"[1]; pig, 30 min, 1000 μg/ml",6.48 ± 0.02^a %
